Like-named read-outs stand apart in the source and are kept apart here.
What was measured:
[1] = tested on: human umbilical vein endothelial cells (HUVEC); assay: Impedimetric measurement (xCELLigence SP), delta slope, HUVEC; conditions: for delta slope (DS), short-term / delta slope (DS), long-term: HUVEC, three parallels; for delta slope (DS), short-term: 0–2 h; for delta slope (DS), long-term: 0–72 h
From the text: (§1) The main objective of the study reported here was to evaluate the in vitro cardiotoxic effects (as undesired side effects) of […] GnRH-III-based conjugates containing doxorubicin, daunorubicin and methotrexate on two essential target cells of cardiovascular diseases: vascular endothelial cells and cardiomyocytes. The rate of cytotoxicity (antitumor effect) vs cardiotoxicity (toxic effects on cardiomyocytes and vascular endothelium) is an important factor for efficient drug development for targeted tumor therapy with minimized side effects. The technique used in this work – impedimetry – is a dedicated one for real-time monitoring of cells to distinguish short-term (0–2 hours) and long-term (0–72 hours) effects elicited by the drug or carrier–drug conjugates. The basic theory of impedimetry is that proliferation/viability of cells is well detectable by monitoring of the electric impedance (Z) in an AC environment, due to the electric insulator character of intact surface membranes composed of the phospholipid bilayer. […] While cell physiological responses of short-term exposures result in characteristic changes of cell morphology (e.g., spreading), long-term effects characteristically influence in particular the proliferation of cells, and therefore the cytotoxic effects. The presented dimensionless values of delta slope (DS) measure the difference between the slope of the curve corresponding to the treatment and that of the control curve in impedimetric recordings, the negative signs refer to the relative values to the identical control.
(§2) Experimental part – Cellular samples
(§3) In the present study, GnRH conjugates containing anti-tumour drugs (e.g., daunorubicin, doxorubicin) were investigated in order to evaluate whether the conjugates exert a decrease cardiotoxic effect compared to that of the free drugs. The cardiac myocytes and the vascular endothelium cells are the most frequently detected target cells of antitumor compounds and they are employed in our study. Human umbilical vein endothelial cells (HUVEC; Promocell, Biomedica, Wien, Austria) were cultured in Endothelial Cell Growth Medium with Endothelial Cell Growth Supplement Mix (Promocell, Biomedica, Wien, Austria) and 100 µg/mL penicillin/streptomycin. Primary human cardiac myocytes (HCM; Promocell, Biomedica, Wien, Austria) were cultured in Myocyte Growth Medium (Promocell, Biomedica, Wien, Austria).
(§4) Impedimetric measurements
(§5) The xCELLigence SP system was used for impedimetric measurements. The bottom of the wells of a 96-well E-plate is installed with a golden electrode array that constitutes the adhesion surface. Adhering cells – acting as insulators – change the electric impedance measured on the electrodes. The measured impedance change is in direct correlation with the number of adhering cells and the extent of adhesion. The results of impedance change are given in the form of Cell Index (CI) calculated by the xCELLigence system according to the […]
(§6) where Zt is the measured impedance in a time point, Zb is the background impedance and F is an inbuilt factor (F = 15 at 10 kHz) depending on the frequency of the alternating current. The measurements took place in an incubator holding a 37 °C temperature and 5% carbon-dioxide […]
(§7) The experiments started with a measurement of baseline impedance for 1 hour. After that, the cells (10^4 cells/well) were added to the wells and allowed to adhere to the electrodes. When the adhering cells reached a balanced state in the wells, signified by the impedance curves […]
(§8) free drugs at 10−12 – 10−6 M and the conjugates at 10−8 – 10−6 M final concentrations were […]
(§9) added to the wells. The changes in impedance were measured for at least 72 hours. For each measurement three parallels were measured.
(§10) The evaluation of responses followed the previously described strategy: acute effects of compounds were evaluated as a characteristic morphology of the curves in the 0–2 hours

[2] = tested on: primary human cardiac myocytes (HCM); conditions: for delta slope (DS), short-term / delta slope (DS), long-term: HCM, three parallels; for delta slope (DS), short-term: 0–2 h; for delta slope (DS), long-term: 0–72 h
From the text: as §1, §2, §3, §4, §5, §6, §7, §8, §9, §10

[3] = tested on: HT-29 human colon adenocarcinoma cells; conditions: MTT assay; cited from earlier work
From the text: (§11) Table 1 Comparative study of cytotoxic effects and cardiotoxicity elicited by GnRH-based antitumor compounds (1–15) and reference substances (AN-152, Dox, Dau, Mtx). IC50 values show antitumor cytotoxic characteristics of the conjugates in human breast cancer (MCF-7), human colorectal adenocarcinoma (HT-29) and human acute monocytic leukemia (MM6) derived cell lines as representative tumor cells.

[4] = tested on: MCF-7 human breast adenocarcinoma cells; conditions: MTT assay; cited from earlier work
From the text: as §11

[5] = tested on: human acute monocytic leukemia (MonoMac6) cells; conditions: cited from earlier work
From the text: as §11

[6] = grade +++/++/+/0, key not given, summary of impedimetric cytotoxicity

| Substance | delta slope (DS), short-term ([1]; Table S2a, 10^-6 mol/L) | delta slope (DS), short-term ([1]; Table S2a, 10^-7 mol/L) | delta slope (DS), short-term ([1]; Table S2a, 10^-8 mol/L) | delta slope (DS), long-term ([1]; Table S2a, 10^-7 mol/L) | delta slope (DS), long-term ([1]; Table S2a, 10^-8 mol/L) | delta slope (DS), short-term ([2]; Table S2b, 10^-6 mol/L) | delta slope (DS), short-term ([2]; Table S2b, 10^-7 mol/L) | delta slope (DS), short-term ([2]; Table S2b, 10^-8 mol/L) | delta slope (DS), long-term ([2]; Table S2b, 10^-6 mol/L) | delta slope (DS), long-term ([2]; Table S2b, 10^-7 mol/L) | delta slope (DS), long-term ([2]; Table S2b, 10^-8 mol/L) | IC50 [3] [nM] | IC50 [4] [nM] | IC50 [5] [nM] | other results |
| --- | --- | --- | --- | --- | --- | --- | --- | --- | --- | --- | --- | --- | --- | --- | --- |
| GnRH-III(Dox=Aoa-GFLG) [conjugate 3] | -0.006 | -0.003 | -0.002 | -0.001 | 0.0004 | -0.002 | 0.001 | 0.004 | −0.007 | -0.001 | 0.002 | 46100 ± 6100 | 5400 ± 1900 | 430 ± 40 | delta slope (DS), long-term ([1]; Table S2a, 10^-6 mol/L, listed as 3): -0.009; delta slope (DS), long-term ([1]; Table S2a, 10^-6 mol/L, listed as GnRH-III(Dox=Aoa-GFLG)): −0.009 |
| Glp-His-Trp-Ser-Tyr-D-Lys(Dox-O-glut)-Leu-Arg-Pro-Gly-NH2 [AN-152, reference compound] | 0.031 | 0.014 | -0.004 | −0.029 | -0.005 | 0.008 | -0.001 | 0.001 | −0.023 | −0.008 | -0.001 | 1900 ± 300 | 200 ± 100 | 35 ± 10 | delta slope (DS), long-term ([1]; Table S2a, 10^-6 mol/L): −0.051; delta slope (DS), long-term ([1]; Table S2a, 10^-6 mol/L, listed as An-152): -0.051; delta slope (DS), long-term ([1]; Table S2a, 10^-7 mol/L, listed as An-152): -0.029; delta slope (DS), long-term ([2]; Table S2b, 10^-6 mol/L, listed as An-152): -0.023; delta slope (DS), long-term ([2]; Table S2b, 10^-7 mol/L, listed as An-152): -0.008 |
| [^4Lys(Mtx)]-GnRH-III(Dau=Aoa) [conjugate 15] | – | – | – | – | – | – | – | – | – | – | – | 3600 ± 1500 | 5800 ± 1100 | > 1000 | delta slope (DS), short-term ([1]; Table S5a, 10^-6 mol/L): 0.006; delta slope (DS), short-term ([1]; Table S5a, 10^-7 mol/L): -0.002; delta slope (DS), short-term ([1]; Table S5a, 10^-8 mol/L): 0.006; delta slope (DS), long-term ([1]; Table S5a, 10^-6 mol/L): -0.001; delta slope (DS), long-term ([1]; Table S5a, 10^-7 mol/L): -0.001; delta slope (DS), long-term ([1]; Table S5a, 10^-8 mol/L): 0.003; Cardiotoxicity, HUVEC [1, 6]: 0; cytotoxic effect on HUVEC, result in words ([1]; long-term (0–72 h), 10^−8–10^−6 mol/L, impedimetry, one-way ANOVA): no significant cytotoxic effect; delta slope (DS), short-term ([2]; Table S5b, 10^-6 mol/L): -0.001; delta slope (DS), short-term ([2]; Table S5b, 10^-7 mol/L): -0.002; delta slope (DS), short-term ([2]; Table S5b, 10^-8 mol/L): -0.003; delta slope (DS), long-term ([2]; Table S5b, 10^-6 mol/L): -0.001; delta slope (DS), long-term ([2]; Table S5b, 10^-7 mol/L): 0.001; delta slope (DS), long-term ([2]; Table S5b, 10^-8 mol/L): -0.001; Cardiotoxicity, HCM [2, 6]: 0; cytotoxic effect on HCM, result in words ([2]; long-term (0–72 h), 10^−8–10^−6 mol/L (free drugs 10^−12–10^−6 mol/L), impedimetry, one-way ANOVA): none of the two investigated mixed drug–GnRH-III conjugates (13 and 15) exerted any significant cytotoxic effect |
| GnRH-III(Dox-glut-GFLG) [conjugate 2] | 0.058 | 0.016 | -0.004 | – | -0.002 | 0.008 | 0.003 | 0.009 | −0.019 | −0.004 | 0.001 | > 100000 | > 100000 | 89 ± 20 | delta slope (DS), long-term ([1]; Table S2a, 10^-6 mol/L, listed as 2): -0.042; delta slope (DS), long-term ([1]; Table S2a, 10^-6 mol/L, listed as GnRH-III(Dox-glut-GFLG)): −0.042; delta slope (DS), long-term ([1]; Table S2a, 10^-7 mol/L, listed as 2): -0.017; delta slope (DS), long-term ([1]; Table S2a, 10^-7 mol/L, listed as GnRH-III(Dox-glut-GFLG)): −0.017 |

From article PMC6037002, “Drug targeting to decrease cardiotoxicity – determination of the cytotoxic effect of GnRH-based conjugates containing doxorubicin, daunorubicin and methotrexate on human cardiomyocytes and endothelial cells” (Beilstein Journal of Organic Chemistry, 2018)
